Structures can show the parent of a compound that is named as a salt.
How the values were obtained:
CCK2 receptor = target: T1, CCK2 receptor (Homo sapiens, UniProt P32239); experiment: Binding Assay: competition with [125I]-BH-CCK-8S in HEKZFP cell membranes; conditions: 60 min at 21±3° C., Cheng-Prusoff
T1 construct: Membranes were prepared from the HEKZFP cells after induction; endogenous in cells
T1 sequence (P32239 1-447): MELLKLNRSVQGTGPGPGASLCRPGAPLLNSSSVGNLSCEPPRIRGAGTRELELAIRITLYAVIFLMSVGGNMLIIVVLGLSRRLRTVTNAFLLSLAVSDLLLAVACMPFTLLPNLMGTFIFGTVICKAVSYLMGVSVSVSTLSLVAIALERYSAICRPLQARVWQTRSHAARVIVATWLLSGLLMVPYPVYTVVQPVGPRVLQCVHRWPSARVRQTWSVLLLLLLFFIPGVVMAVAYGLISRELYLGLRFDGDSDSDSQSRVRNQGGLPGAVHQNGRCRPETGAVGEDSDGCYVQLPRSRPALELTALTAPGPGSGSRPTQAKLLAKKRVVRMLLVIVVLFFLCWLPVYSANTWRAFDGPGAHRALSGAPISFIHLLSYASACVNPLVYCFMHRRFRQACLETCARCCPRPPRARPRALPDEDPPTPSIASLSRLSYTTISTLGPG
Procedure: Zinc Finger Proteins (ZFP) specific for the CCK2R gene were identified by Sangamo Biosciences. The ZFP domain was fused with the herpes simplex virus VP16 activation domain, and the fusion protein was subsequently cloned into the pcDNA3 mammalian expression vector (Invitrogen, San Diego, Calif.). Tet-inducible cell lines expressing the coding region from the ZFP vector were created using the T-REx-293™ cell line (Invitrogen). After 2 weeks of selection in culture medium containing […] Zeocin (Invitrogen), sixty drug-resistant stable clones were isolated and analyzed for ZFP expression as well as CCK2R induction upon addition of doxycycline to the culture medium. The cell line with the most appropriate CCK2R ZFP construct was used in all further assays and was termed the HEKZFP cell line.
HEKZFP cells were grown in DMEM supplemented with L-glutamine (2 mM), penicillin (50 units/mL) and streptomycin (50 μg/mL) and 10% FBS (v/v). HEKZFP cells were treated with […] doxycycline (Sigma-Aldrich, MO; USA) for 2 days to de-repress the tet-regulated expression of the CCK2 receptor selective zinc finger proteins and were harvested using a rubber cell scraper.
Membranes were prepared from the HEKZFP cells after induction. Frozen cell pellets (−40° C.) were thawed in 14 mL of buffer A (10 mM HEPES, 130 mM NaCl, 4.7 mM KCl, 5 mM MgCl, 1 mM EGTA and 15.4 mg/100 mL bacitracin at pH 7.2), adapted from E. A. Harper et al. (Br. J. Pharmacol. (1996) 118(7):1717-1726). The thawed pellets were homogenized using a Polytron PT-10 (7×1 s). The homogenates were centrifuged for 5 min at 1500 rpm (600×g), and the resulting pellets were discarded. The supernatants were re-centrifuged in order to collect the receptor-membrane pellets (25 min 15,000 rpm; 39,000×g), which were re-suspended in buffer A.
All assays were conducted in 96-well plate (GF/B millipore filter plates) using buffer A. For the optimal cell number determination experiments, cells in concentrations ranging from 2.5×10^5 to 12.5×10^5 cells/well were incubated with 20 pM [^125I]-BH-CCK-8S (50 μL 60 pM) solution) in a total volume of 150 μL. Total binding of [^125I]-BH-CCK-8S was determined in the presence of 15 μL of buffer A. Non-specific binding of [^125I]-BH-CCK-8S was determined in the presence of 15 μL of 10 μM YF476, a CCK-2 receptor selective antagonist that is structurally unrelated to the radioligand [^125I]-BH-CCK-8S. The assay preparation was incubated for 1 h at 21±3° C., and then the assay was terminated by rapid filtration of the preparation under reduced pressure. The loaded filters were washed three times using undiluted PBS (100 μL), and then 100 μL of scintillation fluid was added to the filter plate. Bound radioactivity was determined using a Topcount (Packard BioScience, Meriden, Conn.) with a count time of 1 min. From these experiments a cell concentration of 1 pellet in 15 mL of buffer was chosen for use in other assays. To validate the radioligand concentration and incubation time for the assay, saturation and kinetic binding studies were also conducted (see M. F. Morton, The Pharmacological Characterization of Cholecystokinin Receptors in the Human Gastrointestinal Tract. PhD Thesis, University of London, 2000). […] The assay was then terminated according to the procedure outlined above.
The pKi values were determined using the equation of Y.-C. Cheng and W. H. Prusoff (Biochem. Pharmacol., 1973, 22(23):3099-3108):
To circumvent problems associated with computer-assisted data analysis of compounds with low affinity, the data obtained in the current study were weighted according to a method described by Morton. In brief, 100% and 0% specific binding were defined independently using total binding and binding obtained in the presence of a high concentration of the reference antagonist, 2-NAP.

Row | SMILES | pKi (CCK2 receptor) | Ki (CCK2 receptor) [nM] | melting point [°C]
1 | O=C(c1ccc([N+](=O)[O-])cc1NS(=O)(=O)c1cccc2nsnc12)N1CCCCC1 [Example 2, Benzo[1,2,5]thiadiazole-4-sulfonic acid [5-nitro-2-(piperidine-1-carbonyl)-phenyl]-amide] | 6.8 | – | –
2 | Cc1ccc(C(=O)N[C@H](C)c2ccc(F)cc2F)c(NS(=O)(=O)c2cccc3nsnc23)c1 [Example 167, (R)-2-(Benzo[1,2,5]thiadiazole-4-sulfonylamino)-N-[1-(2,4-difluoro-phenyl)-ethyl]-4-methyl-benzamide] | – | 25.1 | –
3 | CC(c1ccc(F)cc1)N(C)C(=O)c1ccc(Br)cc1NS(=O)(=O)c1cccc2nsnc12 (stereo not drawn) [Example 112, 2-(Benzo[1,2,5]thiadiazole-4-sulfonylamino)-4-bromo-N-[1-(4-fluoro-phenyl)-ethyl]-N-methyl-benzamide] | – | 5.01 | –
4 | CCCCNC(=O)c1ccc(Cl)cc1NS(=O)(=O)c1cccc2nsnc12 [Example 59, 2-(Benzo[1,2,5]thiadiazole-4-sulfonylamino)-N-butyl-4-chloro-benzamide] | – | 631 | –
5 | CC1CCCCN1C(=O)c1ccc(Cl)cc1NS(=O)(=O)c1cccc2nsnc12 (stereo not drawn) [Example 70, Benzo[1,2,5]thiadiazole-4-sulfonic acid [5-chloro-2-(2-methyl-piperidine-1-carbonyl)-phenyl]-amide] | 7.5 | – | –
6 | O=C(c1cc(Cl)c(Cl)cc1NS(=O)(=O)c1cccc2nsnc12)N1CCCCC1 [Example 36, Benzo[1,2,5]thiadiazole-4-sulfonic acid [4,5-dichloro-2-(piperidine-1-carbonyl)-phenyl]-amide] | 7.8 | – | 178 to 179
7 | CN(Cc1ccc(F)cc1F)C(=O)c1ccc(Br)cc1NS(=O)(=O)c1cccc2nsnc12 [Example 111, 2-(Benzo[1,2,5]thiadiazole-4-sulfonylamino)-4-bromo-N-(2,4-difluoro-benzyl)-N-methyl-benzamide] | – | 15.8 | –
8 | O=C(c1ccc(-c2cccs2)cc1NS(=O)(=O)c1cccc2nsnc12)N1CCCCC1 [Example 22, Benzo[1,2,5]thiadiazole-4-sulfonic acid [2-(piperidine-1-carbonyl)-5-thiophen-2-yl-phenyl]-amide] | – | 200 | –
9 | O=C(c1ccc(I)cc1NS(=O)(=O)c1cccc2nsnc12)N1CCCCC1 [Example 6, Benzo[1,2,5]thiadiazole-4-sulfonic acid [5-iodo-2-(piperidine-1-carbonyl)-phenyl]-amide] | – | 3.98 | –
10 | CN(C(=O)c1ccc(Cl)cc1NS(=O)(=O)c1cccc2nsnc12)c1ccccc1 [Example 58, 2-(Benzo[1,2,5]thiadiazole-4-sulfonylamino)-4-chloro-N-methyl-N-phenyl-benzamide] | – | 126 | –
11 | CC(C)c1ccc(C(=O)N2CCCCC2)c(NS(=O)(=O)c2cccc3nsnc23)c1 [Example 37, Benzo[1,2,5]thiadiazole-4-sulfonic acid [5-isopropyl-2-(piperidine-1-carbonyl)-phenyl]-amide] | – | – | 125 to 127
12 | CN(C)CC(c1ccccc1)N(C)C(=O)c1ccc(Cl)cc1NS(=O)(=O)c1cccc2nsnc12 (stereo not drawn) [Example 48, 2-(Benzo[1,2,5]thiadiazole-4-sulfonylamino)-4-chloro-N-(2-dimethylamino-1-phenyl-ethyl)-N-methylbenzamide TFA salt] | – | 398 | –
13 | O=C(c1ccc(I)cc1NS(=O)(=O)c1cccc2nsnc12)N1CCOCC1 [Example 138, Benzo[1,2,5]thiadiazole-4-sulfonic acid [5-iodo-2-(morpholine-4-carbonyl)-phenyl]-amide] | 7.5 | – | –
14 | C[C@H](c1ccccc1)N(C)C(=O)c1cc(Cl)ccc1NS(=O)(=O)c1cccc2nsnc12 [Example 118, (R)-2-(Benzo[1,2,5]thiadiazole-4-sulfonylamino)-5-chloro-N-methyl-N-(1-phenyl-ethyl)-benzamide] | – | 126 | –
15 | C[C@@H](NC(=O)c1ccc(Br)cc1NS(=O)(=O)c1cccc2nsnc12)c1ccc(F)cc1F [Example 155] | – | 25.1 | –
16 | CON(C)C(=O)c1ccc(Br)cc1NS(=O)(=O)c1cccc2nsnc12 [Example 117, 2-(Benzo[1,2,5]thiadiazole-4-sulfonylamino)-4-bromo-N-methoxy-N-methyl-benzamide] | – | 398 | –
17 | CC(c1ccc(F)cc1)N(C)C(=O)c1ccc(I)cc1NS(=O)(=O)c1cccc2nsnc12 (stereo not drawn) [Example 105, 2-(Benzo[1,2,5]thiadiazole-4-sulfonylamino)-N-[1-(4-fluoro-phenyl)-ethyl]-4-iodo-N-methyl-benzamide] | – | 10 | –
18 | O=C(c1cc2ccccc2cc1NS(=O)(=O)c1cccc2nsnc12)N1CCCCC1 [Example 4, Benzo[1,2,5]thiadiazole-4-sulfonic acid [3-(piperidine-1-carbonyl)-naphthalen-2-yl]-amide] | – | 100 | –
19 | O=C(c1ccc(Cl)cc1NS(=O)(=O)c1cccc2nsnc12)N1CCSC1 [Example 79, Benzo[1,2,5]thiadiazole-4-sulfonic acid [5-chloro-2-(thiazolidine-3-carbonyl)-phenyl]-amide] | 7.1 | – | –
20 | C[C@H](c1ccccc1)N(C)C(=O)c1ccc(C(F)(F)F)cc1NS(=O)(=O)c1cccc2nsnc12 [Example 195, (R)-2-(Benzo[1,2,5]thiadiazole-4sulfonylamino)-N-methyl-N-(1-phenyl-ethyl)-4-trifluoromethyl-benzamide] | – | 7.94 | –

Reference: patent US7550492B2, “Benzo[1,2,5]thiadiazole compounds” (Janssen Pharmaceutica N.V., priority 2003, dated 2009)
